Data on three molecules can be found in PMC9036676 (RSC Advances, 2021).

The target in one test is PD-1/PD-L1 (Homo sapiens, UniProt Q9NZQ7). The experiment in a line: PD-1/PD-L1 TR-FRET assay. It counts as binding. The settings on record: IC50 on PD-1/PD-L1, TR-FRET assay. Background: TR-FRET usually uses a lanthanide donor and a delayed reading to cut background.
The next test deals with PD-1/PD-L1 interaction. The settings on record: read-out: IC50, inhibitory activity against the PD-1/PD-L1 interaction; cited from earlier work.

Positions of bridges follow the written chain, without caps; N, C: chain ends. Non-standard residues stand in square brackets, D forms with d. Residues, ends and D or L forms follow the SMILES beside them. Trp(1-CH2COOH) = N[C@@H](Cc1cn(CC(=O)O)c2ccccc12)C(=O)O; Oic = O=C(O)[C@@H]1C[C@@H]2CCCC[C@@H]2N1; Hyp = O=C(O)[C@@H]1C[C@@H](O)CN1; NMeNle = CCCC[C@H](NC)C(=O)O; Pip = O=C(O)[C@@H]1CCCCN1; NMeA = CN[C@@H](C)C(=O)O; Dab = NCC[C@H](N)C(=O)O; Dap = NC[C@H](N)C(=O)O

Sequence of PD-1/PD-L1 (Q9NZQ7 19-238 limits assumed): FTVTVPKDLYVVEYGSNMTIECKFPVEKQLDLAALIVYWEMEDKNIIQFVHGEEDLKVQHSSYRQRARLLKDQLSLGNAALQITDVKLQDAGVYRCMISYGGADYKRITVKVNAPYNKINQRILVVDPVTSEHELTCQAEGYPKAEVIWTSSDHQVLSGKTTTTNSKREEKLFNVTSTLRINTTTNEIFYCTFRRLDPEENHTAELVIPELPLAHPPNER

`CCCC[C@H]1C(=O)N(C)[C@@H](CCCC)C(=O)N[C@@H](CC(C)C)C(=O)N[C@H](C(=O)NCC(N)=O)CSCC(=O)N[C@@H](Cc2ccc(O)cc2)C(=O)N2CCCC[C@H]2C(=O)N[C@@H](CC(N)=O)C(=O)N2[C@@H](C[C@@H]3CCCC[C@@H]32)C(=O)N[C@@H](CN)C(=O)N[C@@H](CC(C)C)C(=O)N2C[C@H](O)C[C@H]2C(=O)N[C@@H](Cc2c[nH]c3ccccc23)C(=O)N[C@@H](CCN)C(=O)N[C@@H](Cc2cn(CC(=O)O)c3ccccc23)C(=O)N1C` [Compound 5] ({CH2CO}-Y[Pip]N[Oic][Dap]L[Hyp]W[Dab][Trp(1-CH2COOH)][NMeNle][NMeNle]LCG-NH2; thioether N-14) came in with an IC50 at PD-1/PD-L1 of 14.6 nM. In the case of `CCCC[C@H]1C(=O)N(C)[C@@H](CCCC)C(=O)N[C@@H](CC(C)C)C(=O)N[C@H](C(=O)NCC(N)=O)CSCC(=O)N[C@@H](Cc2ccccc2)C(=O)N(C)[C@@H](C)C(=O)N[C@@H](CC(N)=O)C(=O)N2CCC[C@H]2C(=O)N[C@@H](Cc2c[nH]cn2)C(=O)N[C@@H](CC(C)C)C(=O)N2C[C@H](O)C[C@H]2C(=O)N[C@@H](Cc2c[nH]c3ccccc23)C(=O)N[C@@H](CO)C(=O)N[C@@H](Cc2c[nH]c3ccccc23)C(=O)N1C` [Compound 2] ({CH2CO}-F[NMeA]NPHL[Hyp]WSW[NMeNle][NMeNle]LCG-NH2; thioether N-14), the IC50 against PD-1/PD-L1 amounted to 40.1 nM. For the molecule `CCCC[C@H]1C(=O)N(C)[C@@H](CCCC)C(=O)N[C@@H](CCCNC(=N)N)C(=O)N[C@H](C(=O)NCC(N)=O)CSCC(=O)N[C@@H](Cc2ccccc2)C(=O)N(C)[C@@H](C)C(=O)N[C@@H](CC(N)=O)C(=O)N2CCC[C@H]2C(=O)N[C@@H](Cc2c[nH]cn2)C(=O)N[C@@H](CC(C)C)C(=O)N[C@@H](CO)C(=O)N[C@@H](Cc2c[nH]c3ccccc23)C(=O)N[C@@H](CO)C(=O)N[C@@H](Cc2c[nH]c3ccccc23)C(=O)N1C` [Compound 1] ({CH2CO}-F[NMeA]NPHLSWSW[NMeNle][NMeNle]RCG-NH2; thioether N-14), the IC50 in the test with PD-1/PD-L1 interaction was 9 nM.
